Measured values taken from ChEMBL document CHEMBL5365425, “Discovery of novel methionine adenosyltransferase 2A (MAT2A) allosteric inhibitors by structure-based virtual screening” (Bioorg Med Chem Lett, 2023).
pIC50: −log10 of the molar value. Converted amounts (≈) assume the structure as drawn. The source made the active and inactive calls. No cut-off for these calls is given here.

Legend:
[1] = target: T1, S-adenosylmethionine synthase isoform type-2 (Homo sapiens, UniProt P31153); assay: Inhibition of recombinant human MAT2A
HCT-116 [2] = assay: Antiproliferative activity against human HCT-116 cells assessed as inhibition of cell growth by proliferation assay; type: functional, cell-based
HCT-116 [3] = assay: Antiproliferative activity against MTAP-/- isogenic variant of human HCT-116 cells assessed as inhibition of cell growth by proliferation assay; type: functional, cell-based
[4] = Lipophilicity, log D of compound at pH 7.4; type: physicochemical; details: buffer
[5] = Solubility of the compound; type: physicochemical
[6] = target: T1, S-adenosylmethionine synthase isoform type-2; assay: Inhibition of human MAT2A
Target sequence in this assay (P31153 whole entry, canonical isoform): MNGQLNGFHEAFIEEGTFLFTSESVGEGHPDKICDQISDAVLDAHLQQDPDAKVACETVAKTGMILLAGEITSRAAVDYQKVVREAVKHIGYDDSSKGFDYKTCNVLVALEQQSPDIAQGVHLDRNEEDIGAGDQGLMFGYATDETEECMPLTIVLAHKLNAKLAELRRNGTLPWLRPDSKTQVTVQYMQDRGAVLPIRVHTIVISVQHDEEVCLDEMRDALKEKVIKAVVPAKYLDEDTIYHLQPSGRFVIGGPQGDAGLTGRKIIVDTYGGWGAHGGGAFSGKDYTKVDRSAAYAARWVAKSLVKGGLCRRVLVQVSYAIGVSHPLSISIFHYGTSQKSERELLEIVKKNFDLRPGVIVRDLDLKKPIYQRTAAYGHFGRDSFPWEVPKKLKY

[7] = target: T2, S-adenosylmethionine synthase isoform type-1 (Homo sapiens, UniProt Q00266); assay: Inhibition of human MAT1A
[8] = target: T2, S-adenosylmethionine synthase isoform type-1; assay: Inhibition of recombinant human MAT1A
[9] = target: T2, S-adenosylmethionine synthase isoform type-1; assay: Activation of human MAT1A; details: filed as activator

T2 sequence (Q00266 whole entry, canonical isoform): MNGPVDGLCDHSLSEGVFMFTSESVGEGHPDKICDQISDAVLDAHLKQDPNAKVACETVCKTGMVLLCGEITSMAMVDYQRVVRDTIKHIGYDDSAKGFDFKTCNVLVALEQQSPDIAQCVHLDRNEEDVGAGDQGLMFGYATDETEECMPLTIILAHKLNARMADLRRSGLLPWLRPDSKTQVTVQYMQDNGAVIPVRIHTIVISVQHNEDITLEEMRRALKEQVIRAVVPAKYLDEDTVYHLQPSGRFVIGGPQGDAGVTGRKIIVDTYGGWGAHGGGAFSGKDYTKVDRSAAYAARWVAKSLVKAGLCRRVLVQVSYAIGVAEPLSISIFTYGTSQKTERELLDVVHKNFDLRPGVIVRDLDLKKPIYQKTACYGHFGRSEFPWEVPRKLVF

SMILES | pIC50 [1] | pIC50 (HCT-116 [2]) | pIC50 (HCT-116 [3]) | logD [4] | solubility [5] | pIC50 [6] | pIC50 [7] | inhibition [1] | inhibition [8] | Activity [9]
COc1ccc2oc3cc(C)[n+]([O-])c(-c4ccc(C)cc4)c3c2c1 | 7.29 | 5.03 | 5.30 | 2.7 | 11 µM (≈ 3.51 µg/mL) | – | – | – | – | –
Cn1cc2cc(-n3cc4cnc(NCC(F)(F)F)nc4c(-c4ccc(OC(F)F)cc4)c3=O)ccc2n1 | – | – | – | – | – | 7.30 | < 5.00 | Active | Active | –
CCn1ncc2c(C(=O)N(C)c3ccc4nn(C)cc4c3)cc(C3CC3)nc21 | < 5.00 | – | – | 2.2 | 94 µM (≈ 35.2 µg/mL) | – | – | – | – | –
CN(C)CCc1nnc2cc(-c3ccccc3)c3cc(Cl)ccc3n12 | – | – | – | – | – | 6.39 | – | Active | Active | Active
CC(C)n1ncc2c(C(=O)Nc3ccc4ncccc4c3)cc(C3CC3)nc21 | 5.43 | < 5.00 | < 5.00 | 3.7 | 4 µM (≈ 1.49 µg/mL) | – | – | – | – | –
CCn1ncc2c(C(=O)Nc3ccc4nn(C)cc4c3)cc(C3CC3)nc21 | 7.11 | < 5.00 | 5.77 | 2.8 | 2 µM (≈ 0.721 µg/mL) | – | – | – | – | –
CCn1ncc2c(C(=O)Nc3ccc4ncn(C)c4c3)cc(C3CC3)nc21 | 6.69 | < 5.00 | 5.14 | 2.6 | 49 µM (≈ 17.7 µg/mL) | – | – | – | – | –
COc1ccc2oc3cc(C)[n+]([O-])c(-c4ccccc4)c3c2c1 | 5.88 | – | – | 2.3 | 15 µM (≈ 4.58 µg/mL) | – | – | – | – | –
COc1ccc2oc3cc(C)[n+]([O-])c(-c4ccc(Cl)cc4)c3c2c1 | 6.91 | 5.10 | 5.51 | 2.8 | 14 µM (≈ 4.76 µg/mL) | – | – | – | – | –
CCn1ncc2c(C(=O)Nc3ccc4nn(C)c(C)c4c3)cc(C3CC3)nc21 | 7.05 | < 5.00 | 5.50 | 2.9 | 9 µM (≈ 3.37 µg/mL) | – | – | – | – | –
CC(C)n1ncc2c(C(=O)Nc3ccc4n[nH]cc4c3)cc(C3CC3)nc21 | 5.74 | < 5.00 | < 5.00 | 3.3 | 19 µM (≈ 6.85 µg/mL) | – | – | – | – | –
CCn1ncc2c(C(=O)Nc3ccc4c(c3)ncn4C)cc(C3CC3)nc21 | 6.52 | < 5.00 | 5.00 | 2.6 | 47 µM (≈ 16.9 µg/mL) | – | – | – | – | –
O=c1nc(N2CC[C@@H](F)C2)c2ccc(Cl)cc2n1-c1ccccc1 | – | – | – | – | – | – | 6.09 | Active | Active | –
CC(C)n1ncc2c(C(=O)Nc3ccc4nn(C)cc4c3)cc(C3CC3)nc21 | 6.39 | < 5.00 | < 5.00 | 3.3 | 3 µM (≈ 1.12 µg/mL) | – | – | – | – | –
CCn1ncc2c(C(=O)Nc3ccc4[nH]ncc4c3)cc(C3CC3)nc21 | 6.33 | < 5.00 | < 5.00 | 2.7 | 23 µM (≈ 7.97 µg/mL) | – | – | – | – | –
COc1ccc(-c2c3c(cc(C)[n+]2[O-])oc2ccc(OC)cc23)cc1 | 6.84 | < 5.00 | 5.12 | 2.5 | 42 µM (≈ 14.1 µg/mL) | – | – | – | – | –
CCn1ncc2c(C(=O)Nc3ccc4ncsc4c3)cc(C3CC3)nc21 | 6.76 | < 5.00 | 5.41 | 3.4 | 1 µM (≈ 0.363 µg/mL) | – | – | – | – | –
CCn1cc2cc(NC(=O)c3cc(C4CC4)nc4c3cnn4CC)ccc2n1 | 7.17 | < 5.00 | 5.62 | 3.1 | 32 µM (≈ 12 µg/mL) | – | – | – | – | –
CCn1ncc2c(C(=O)Nc3ccc(OC)cc3)cc(C3CC3)nc21 | 6.89 | < 5.00 | 5.28 | 3.6 | 3 µM (≈ 1.01 µg/mL) | – | – | – | – | –
CCn1ncc2c(C(=O)Nc3ccc4ncccc4c3)cc(C3CC3)nc21 | 6.56 | < 5.00 | 5.19 | 3.2 | 13 µM (≈ 4.65 µg/mL) | – | – | – | – | –
CC(C)n1ncc2c(C(=O)Nc3ccc4nccnc4c3)cc(C3CC3)nc21 | < 5.00 | – | – | 3.5 | 2 µM (≈ 0.745 µg/mL) | – | – | – | – | –
COc1ccc(-c2c(Nc3ccccn3)[nH]c3c(C4=CCCCC4)c(-c4ccccc4)nn3c2=O)cc1 | – | – | – | – | – | – | – | Active | Active | Active
CCCCn1ncc2c(C(=O)Nc3ccc4nn(C)cc4c3)cc(C3CC3)nc21 | < 5.00 | – | – | 3.2 | 4 µM (≈ 1.55 µg/mL) | – | – | – | – | –
